Laboratory results from ChEMBL document CHEMBL5050844 (2019).

Columns and labels:
[1] = Induction of anti-CD3/CD28 antibodies-stimulated human T cell activation at 4 uM assessed fold increase in IL-2 secretion measured by ELISA assay; format: functional, T cell line
[2] = Induction of anti-CD3/CD28 antibodies-stimulated human T cell activation at 0.3 uM assessed fold increase in IL-2 secretion measured by ELISA assay; format: functional, T cell line
[3] = Induction of anti-CD3 antibodies-stimulated human T cell activation at 8 uM assessed fold increase in IL-2 secretion measured by ELISA assay; format: functional, T cell line; further: reference of the scale not given here
[4] = Induction of anti-CD3 antibodies-stimulated human T cell activation at 1 uM assessed fold increase in IL-2 secretion measured by ELISA assay; format: functional, T cell line; further: reference of the scale not given here
[5] = Induction of anti-CD3/CD28 antibodies-stimulated human T cell activation at 4 uM assessed fold increase in CD25 expression measured by ELISA assay; format: functional, T cell line
[6] = Induction of anti-CD3/CD28 antibodies-stimulated human T cell activation at 1 uM assessed fold increase in CD25 expression measured by ELISA assay; format: functional, T cell line
[7] = Induction of anti-CD3 antibodies-stimulated human T cell activation at 1 uM assessed fold increase in CD25 expression measured by ELISA assay; format: functional, T cell line; further: reference of the scale not given here
[8] = Induction of anti-CD3/CD28 antibodies-stimulated human CD4+ T cell activation at 1.11 uM assessed fold increase in CD69 expression measured by flow cytometry analysis; format: functional, T cell line
[9] = Induction of anti-CD3/CD28 antibodies-stimulated human CD4+ T cell activation at 10 uM assessed fold increase in cell proliferation measured by flow cytometry analysis; format: functional, T cell line
[10] = Induction of anti-CD3/CD28 antibodies-stimulated human CD8+ T cell activation at 10 uM assessed fold increase in CD69 expression measured by flow cytometry analysis; format: functional, T cell line
[11] = Induction of anti-CD3/CD28 antibodies-stimulated human CD8+ T cell activation at 10 uM assessed fold increase in cell proliferation measured by flow cytometry analysis; format: functional, T cell line
[12] = Induction of anti-CD3/CD28 antibodies-stimulated human CD8+ T cell activation at 1.11 uM assessed fold increase in cell proliferation measured by flow cytometry analysis; format: functional, T cell line
[13] = Induction of anti-CD3 antibodies-stimulated human CD4+ T cell activation at 10 uM assessed fold increase in CD69 expression measured by flow cytometry analysis; format: functional, T cell line; further: reference of the scale not given here
[14] = Induction of anti-CD3 antibodies-stimulated human CD4+ T cell activation at 1.11 uM assessed fold increase in CD69 expression measured by flow cytometry analysis; format: functional, T cell line; further: reference of the scale not given here
[15] = Induction of anti-CD3 antibodies-stimulated human CD8+ T cell activation at 10 uM assessed fold increase in cell proliferation measured by flow cytometry analysis; format: functional, T cell line; further: reference of the scale not given here
[16] = Induction of anti-CD3 antibodies-stimulated human CD8+ T cell activation at 1.11 uM assessed fold increase in cell proliferation measured by flow cytometry analysis; format: functional, T cell line; further: reference of the scale not given here
[17] = Induction of anti-CD3/CD28 antibodies-stimulated human T cell activation at 10 uM assessed fold increase in GM-CSF secretion measured by ELISA assay; format: functional, T cell line
[18] = Induction of anti-CD3/CD28 antibodies-stimulated human T cell activation at 1.11 uM assessed fold increase in GM-CSF secretion measured by ELISA assay; format: functional, T cell line
[19] = Induction of anti-CD3 antibodies-stimulated human T cell activation at 10 uM assessed fold increase in GM-CSF secretion measured by ELISA assay; format: functional, T cell line; further: reference of the scale not given here
[20] = Induction of anti-CD3/CD28 antibodies-stimulated human T cell activation at 10 uM assessed fold increase in TNF-alpha secretion measured by ELISA assay; format: functional, T cell line
[21] = Induction of anti-CD3/CD28 antibodies-stimulated human T cell activation at 1.11 uM assessed fold increase in TNF-alpha secretion measured by ELISA assay; format: functional, T cell line
[22] = Induction of anti-CD3 antibodies-stimulated human T cell activation at 10 uM assessed fold increase in TNF-alpha secretion measured by ELISA assay; format: functional, T cell line; further: reference of the scale not given here
[23] = Induction of anti-CD3/CD28 antibodies-stimulated human T cell activation at 10 uM assessed fold increase in IFN-gamma secretion measured by ELISA assay; format: functional, T cell line
[24] = Induction of anti-CD3/CD28 antibodies-stimulated human T cell activation at 1.11 uM assessed fold increase in IFN-gamma secretion measured by ELISA assay; format: functional, T cell line
[25] = Induction of anti-CD3 antibodies-stimulated human T cell activation at 1.11 uM assessed fold increase in IFN-gamma secretion measured by ELISA assay; format: functional, T cell line; further: reference of the scale not given here
[26] = Induction of allogenic human T cell activation at 10 uM assessed fold increase in cell proliferation; format: functional, T cell line
[27] = Induction of allogenic human T cell activation at 3 uM assessed fold increase in cell proliferation; format: functional, T cell line
[28] = Induction of anti-CD3 antibodies-stimulated human exhausted T cell activation assessed fold increase in IFN-gamma secretion measured by ELISA assay; format: functional, T cell line; further: reference of the scale not given here
[29] = Induction of anti-CD3 antibodies-stimulated human exhausted T cell activation assessed fold increase in GM-CSF secretion measured by ELISA assay; format: functional, T cell line; further: reference of the scale not given here
[30] = Induction of anti-CD3 antibodies-stimulated human exhausted CD4+ T cell activation assessed fold increase in CTLA4 expression measured by flow cytometry analysis; format: functional, T cell line; further: reference of the scale not given here
[31] = Induction of anti-CD3/CD28 antibodies-stimulated human anergic T cell activation at 1.11 uM assessed fold increase in IFN-gamma secretion measured by ELISA assay; format: functional, T cell line
[32] = Induction of anti-CD3/CD28 antibodies-stimulated human anergic T cell activation at 0.37 uM assessed fold increase in IFN-gamma secretion measured by ELISA assay; format: functional, T cell line
B cell = test: Induction of anti-IgM-stimulated human CD20+ B cell activation at 10 to 1000 uM assessed as increase in CD69 expression measured as mean fluorescence intensity AUC by flow cytometry analysis; format: functional, cell-based; settings: dose 10-1000 µM
[33] = Induction of activation of human CD56+ CD3- NK cells co-cultured with human K562 cells in 1:1 ratio and assessed as increase in IFN-gamma secretion at 10 uM measured by ELISA assay; format: functional, Natural killer cell
[34] = Induction of activation of human CD56+ CD3- NK cells co-cultured with human K562 cells in 1:1 ratio and assessed as increase in TNF-alpha secretion at 10 uM measured by ELISA assay; format: functional, Natural killer cell
[35] = Induction of activation of human CD56+ CD3- NK cells co-cultured with human K562 cells in 1:1 ratio and assessed as increase in IFN-gamma secretion at 2.5 uM measured by ELISA assay; format: functional, Natural killer cell
[36] = Induction of activation of human CD56+ CD3- NK cells co-cultured with human K562 cells in 1:1 ratio and assessed as increase in TNF-alpha secretion at 2.5 uM measured by ELISA assay; format: functional, Natural killer cell
[37] = Induction of activation of human CD56+ CD3- NK cells co-cultured with human K562 cells in 1:1 ratio and assessed as increase in TNF-alpha secretion at 0.625 uM measured by ELISA assay; format: functional, Natural killer cell

Row | SMILES | fold change (FC) [1] | fold change (FC) [2] | fold change (FC) [3] | fold change (FC) [4] | fold change (FC) [5] | fold change (FC) [6] | fold change (FC) [7] | fold change (FC) [8] | fold change (FC) [9] | fold change (FC) [10] | fold change (FC) [11] | fold change (FC) [12] | fold change (FC) [13] | fold change (FC) [14] | fold change (FC) [15] | fold change (FC) [16] | fold change (FC) [17] | fold change (FC) [18] | fold change (FC) [19] | fold change (FC) [20] | other results
1 | C[C@H](Cc1nncn1C)c1cccc(N2Cc3c(cc(CN4CC(O)C4)cc3C(F)(F)F)C2=O)c1 | >=7.5 | 2.51 | >=0.201 | >=0.201 | 1.31 | 1.31 | >=1.001 | <=1.2 | 3.01 | <=1.2 | 2.01 | <=2 | 1.201 | 1.201 | <=2 | <=2 | 1.51 | <=1.5 | <=1.5 | 1.51 | fold change (FC) [21]: <=1.5; fold change (FC) [22]: <=1.5; fold change (FC) [23]: >4; fold change (FC) [24]: 2.01; fold change (FC) [25]: <=2; fold change (FC) [26]: 2.01; fold change (FC) [27]: <=2; fold change (FC) [28]: >1.61; fold change (FC) [29]: 1.41; fold change (FC) [30]: >1.61; fold change (FC) [31]: 2.51; fold change (FC) [32]: <=2.5; AUC (B cell): 0.5; fold change (FC) [33]: 2.01; fold change (FC) [34]: 2.01; fold change (FC) [35]: 1.01; fold change (FC) [36]: 2.01; fold change (FC) [37]: 1.01
2 | C[C@H](Sc1nncn1C)c1cccc(NC(=O)c2cccc(C(F)(F)F)n2)c1 | >=7.5 | 1.01 | >=0.201 | 0.051 | >=1.76 | 1.31 | 0.601 | <=1.2 | <=2 | <=1.2 | <=2 | <=2 | <=1.2 | <=1.2 | <=2 | <=2 | 2.01 | 1.51 | 2.01 | 2.01 | fold change (FC) [21]: 1.51; fold change (FC) [22]: 1.51; fold change (FC) [23]: <=2; fold change (FC) [24]: <=2; fold change (FC) [25]: <=2; fold change (FC) [26]: <=2; fold change (FC) [27]: <=2; fold change (FC) [28]: <=1.4; fold change (FC) [29]: 1.41; fold change (FC) [30]: <=1.4; fold change (FC) [31]: 2.51; fold change (FC) [32]: <=2.5; AUC (B cell): 0.5; fold change (FC) [33]: 2.01; fold change (FC) [34]: 1.01; fold change (FC) [35]: 1.01; fold change (FC) [36]: 1.01; fold change (FC) [37]: 1.01
3 | C[C@H](Cc1nncn1C)c1cccc(NC(=O)c2nc(C(F)(F)F)c[nH]2)c1 | 2.51 | 1.01 | >=0.201 | 0.051 | 1.01 | 1.01 | 0.801 | 1.201 | >4 | 1.201 | 3.01 | 2.01 | 1.401 | 1.201 | >4 | 2.01 | 2.01 | 1.51 | 2.01 | 2.01 | fold change (FC) [21]: <=1.5; fold change (FC) [22]: 1.51; fold change (FC) [23]: 2.01; fold change (FC) [24]: <=2; fold change (FC) [25]: <=2; fold change (FC) [26]: <=2; fold change (FC) [27]: <=2; fold change (FC) [28]: >1.61; fold change (FC) [29]: <=1.4; fold change (FC) [30]: <=1.4; fold change (FC) [31]: <=2.5; fold change (FC) [32]: <=2.5; AUC (B cell): < 0.5; fold change (FC) [33]: 2.01; fold change (FC) [34]: 2.01; fold change (FC) [35]: 1.01; fold change (FC) [36]: 2.01; fold change (FC) [37]: 1.01
